From patent publication US20090048301A1 (IMCLONE SYSTEMS INCORPORATED, priority 2003, published 2009)

System: bovine tubulin
Experiment: In vitro tubulin polymerization assay (turbidity at 340 nm)
Type: biochemical
Conditions: 10 μM compound, 30 minute data point, vs 1% DMSO control
Procedure, shortened: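 Bovine tubulin (97%, <3% MAPs) at 3 mg/ml final in G-PEM pH 7 with 1 mM GTP and 5% glycerol, added cold to compound wells at 37° C (1% DMSO final). A340 read each minute for 30 min; percent inhibition from 30-min point versus DMSO control.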

| SMILES | Tubulin Assay: percent inhibition at 10 μM based on 30 minute data [%] |
| --- | --- |
| COc1cccc(Nc2nnc(-c3cccnc3NCCCn3ccnc3)[nH]2)c1 [Compound 29, (3-Imidazol-1-yl-propyl)-{3-[5-(3-methoxy-phenylamino)-4H-[1,2,4]triazol-3-yl]-pyridin-2-yl}-amine] | 28 |
| COc1cc(CNc2ccccc2-c2nnc(-c3cccc(OC)c3)[nH]2)cc(OC)c1 [Compound 135, (3,5-Dimethoxy-benzyl)-{2-[5-(3-methoxy-phenyl)-4H-[1,2,4]triazol-3-yl]-phenyl}-amine] | 23 |
| O=S(=O)(Nc1ccccc1-c1nnc(Nc2ccc3c(c2)OCO3)o1)c1cccc(OC(F)(F)F)c1 [Compound 239, N-{2-[5-(Benzo[1,3]dioxol-5-ylamino)-[1,3,4]oxadiazol-2-yl]-phenyl}-3-trifluoromethoxy-benzenesulfonamide] | 49 |
| FC(F)(F)c1cccc(-c2nnc(-c3ccccc3NCc3ccc4c(c3)OCCO4)[nH]2)c1 [Compound 150, (2,3-Dihydro-benzo[1,4]dioxin-6-ylmethyl)-{2-[5-(3-trifluoromethyl-phenyl)-4H-[1,2,4]triazol-3-yl]-phenyl}-amine] | 24 |
| COc1cc(CNc2ncccc2-c2nnc(Nc3cccc(F)c3)o2)cc(OC)c1 [Compound 184, (3,5-Dimethoxy-benzyl)-{3-[5-(3-fluoro-phenylamino)-[1,3,4]oxadiazol-2-yl]-pyridin-2-yl}-amine] | 23 |
| COc1cc(Nc2nnc(-c3ccccc3NCc3ccc(F)c(F)c3)[nH]2)cc(OC)c1 [Compound 120, {5-[2-(3,4-Difluoro-benzylamino)-phenyl]-4H-[1,2,4]triazol-3-yl}-(3,5-dimethoxy-phenyl)-amine] | 63 |
| FC(F)(F)c1ccc(-c2nnc(-c3ccccc3NCc3ccc4c(c3)OCO4)[nH]2)cc1 [Compound 138, Benzo[1,3]dioxol-5-ylmethyl-{2-[5-(4-trifluoromethyl-phenyl)-4H-[1,2,4]triazol-3-yl]-phenyl}-amine] | 28 |
| COc1cc(CNc2cc(C(F)(F)F)ccc2-c2nnc(Nc3ccc4c(c3)OCO4)[nH]2)cc(OC)c1 [Compound 126, Benzo[1,3]dioxol-5-yl-{5-[2-(3,5-dimethoxy-benzylamino)-4-trifluoromethyl-phenyl]-4H-[1,2,4]triazol-3-yl}-amine] | 93 |
| COc1ccc(S(=O)(=O)Nc2ccccc2-c2nnc(Nc3ccc4c(c3)OCO4)o2)cc1OC [Compound 238, N-{2-[5-(Benzo[1,3]dioxol-5-ylamino)-[1,3,4]oxadiazol-2-yl]-phenyl}-3,4-dimethoxy-benzenesulfonamide] | 65 |
| COc1cc(Nc2ncccc2-c2nnc(Nc3cccc(NCC4CCOCC4)c3)[nH]2)cc(OC)c1 [Compound 61, N-{5-[2-(3,5-Dimethoxy-phenylamino)-pyridin-3-yl]-4H-[1,2,4]triazol-3-yl}-N′-(tetrahydro-pyran-4-ylmethyl)-benzene-1,3-diamine] | 24 |
| COc1cc(Nc2ncccc2-c2nnc(NS(=O)(=O)c3cccc(OC)c3)o2)cc(OC)c1 [Compound 243, N-{5-[2-(3,5-Dimethoxy-phenylamino)-pyridin-3-yl]-[1,3,4]oxadiazol-2-yl}-3-methoxy-benzenesulfonamide] | 55 |
| c1cncc(CCNc2ncccc2-c2nnc(Nc3ccc4c(c3)OCCO4)o2)c1 [Compound 201, {3-[5-(2,3-Dihydro-benzo[1,4]dioxin-6-ylamino)-[1,3,4]oxadiazol-2-yl]-pyridin-2-yl}-(2-pyridin-3-yl-ethyl)-amine] | 23 |
| FC(F)(F)c1cccc(-c2nnc(-c3cccnc3NCc3ccco3)[nH]2)c1 [Compound 96, Furan-2-ylmethyl-{3-[5-(3-trifluoromethyl-phenyl)-4H-[1,2,4]triazol-3-yl]-pyridin-2-yl}-amine] | 20 |
| CS(=O)(=O)c1ccc(-c2nnc(-c3cccnc3NCc3ccc(F)cc3)o2)cc1 [Compound 212, (4-Fluoro-benzyl)-{3-[5-(4-methanesulfonyl-phenyl)-[1,3,4]oxadiazol-2-yl]-pyridin-2-yl}-amine] | 38 |
| c1ccc(-c2nnc(Nc3ccc4c(c3)OCCO4)o2)c(NCc2ccc3ncccc3c2)c1 [Compound 227, (2,3-Dihydro-benzo[1,4]dioxin-6-yl)-(5-{2-[(quinolin-6-ylmethyl)-amino]-phenyl}-[1,3,4]oxadiazol-2-yl)-amine] | 99 |
| COc1ccc(Nc2nnc(-c3cccnc3NCc3cccnc3)[nH]2)c(OC)c1 [Compound 27, {3-[5-(2,4-Dimethoxy-phenylamino)-4H-[1,2,4]triazol-3-yl]-pyridin-2-yl}-pyridin-3-ylmethyl-amine] | 20 |

| SMILES | Tubulin Assay: percent inhibition at 10 μM based on 30 minute data [%] |
| --- | --- |
| COc1cccc(CNc2nnc(-c3ccccc3NCc3ccncc3)[nH]2)c1 [Compound 112, (3-Methoxy-benzyl)-(5-{2-[(pyridin-4-ylmethyl)-amino]-phenyl}-4H-[1,2,4]triazol-3-yl)-amine] | 49 |
| CS(=O)(=O)c1ccc(-c2nnc(-c3cccnc3NCc3cccc(F)c3)o2)cc1 [Compound 214, (3-Fluoro-benzyl)-{3-[5-(4-methanesulfonyl-phenyl)-[1,3,4]oxadiazol-2-yl]-pyridin-2-yl}-amine] | 52 |
| COc1cc(Nc2ncccc2-c2nnc(Nc3cccc(NS(=O)(=O)c4ccc5c(c4)OCCO5)c3)[nH]2)cc(OC)c1 [Compound 64, 2,3-Dihydro-benzo[1,4]dioxine-6-sulfonic acid (3-{5-[2-(3,5-dimethoxy-phenylamino)-pyridin-3-yl]-4H-[1,2,4]triazol-3-ylamino}-phenyl)-amide] | 29 |
| O=C1CCCN1CCCNc1ncccc1-c1nnc(Nc2ccc3c(c2)OCCO3)[nH]1 [Compound 48, 1-(3-{3-[5-(2,3-Dihydro-benzo[1,4]dioxin-6-ylamino)-4H-[1,2,4]thiazol-3-yl]-pyridin-2-ylamino}-propyl)-pyrrolidin-2-one] | 21 |
| Fc1ccc(CNc2ccccc2-c2cnc(Nc3ccc4c(c3)OCCO4)o2)cc1F [Compound 247, {5-[2-(3,4-Difluoro-benzylamino)-phenyl]-oxazol-2-yl}-(2,3-dihydro-benzo[1,4]dioxin-6-yl)-amine] | 94 |
| COc1cc(Nc2ncccc2-c2nnc(Nc3cccc(NS(=O)(=O)c4ccc5c(c4)CCO5)c3)[nH]2)cc(OC)c1 [Compound 63, 2,3-Dihydro-benzofuran-5-sulfonic acid (3-{5-[2-(3,5-dimethoxy-phenylamino)-pyridin-3-yl]-4H-[1,2,4]triazol-3-ylamino}-phenyl)-amide] | 24 |
| COc1cc(Nc2ncccc2-c2nnc(Nc3cccc(NCc4ccco4)c3)[nH]2)cc(OC)c1 [Compound 62, N-{5-[2-(3,5-Dimethoxy-phenylamino)-pyridin-3-yl]-4H-[1,2,4]triazol-3-yl}-N′-furan-2-ylmethyl-benzene-1,3-diamine] | 73 |
| CN(C)c1ccc(-c2nnc(Nc3ccc4c(c3)OCCO4)o2)c(NCc2ccc3c(c2)OCO3)c1 [Compound 232, (5-{2-[(Benzo[1,3]dioxol-5-ylmethyl)-amino]-4-dimethylamino-phenyl}-[1,3,4]oxadiazol-2-yl)-(2,3-dihydro-benzo[1,4]dioxin-6-yl)-amine] | 26 |
| COc1cc(CNc2ncccc2-c2nnc(Nc3ccc(OC)cc3OC)[nH]2)cc(OC)c1 [Compound 24, (3,5-Dimethoxy-benzyl)-{3-[5-(2,4-dimethoxy-phenylamino)-4H-[1,2,4]triazol-3-yl]-pyridin-2-yl}-amine] | 20 |
| Cn1nc(-c2cccnc2NCc2ccncc2)nc1Nc1ccc2c(c1)OCCO2 [Compound 68, {3-[5-(2,3-Dihydro-benzo[1,4]dioxin-6-ylamino)-1-methyl-1H-[1,2,4]triazol-3-yl]-pyridin-2-yl}-pyridin-4-ylmethyl-amine] | 58 |
| COc1cc(Nc2ncccc2-c2nnc(Nc3cccc(N)c3)[nH]2)cc(OC)c1 [Compound 60b, N-{5-[2-(3,5-dimethoxy-phenylamino)-pyridin-3-yl]-4H-[1,2,4]triazol-3-yl}-benzene-1,3-diamine] | 39 |
| CN(C)c1ccc(-c2nnc(Nc3ccc4c(c3)OCCO4)o2)c(NCc2cccnc2)c1 [Compound 229, (2,3-Dihydro-benzo[1,4]dioxin-6-yl)-(5-{4-dimethylamino-2-[(pyridin-3-ylmethyl)-amino]-phenyl}-[1,3,4]oxadiazol-2-yl)-amine] | 32 |
| CN(C)c1ccc(-c2nnc(Nc3ccc4c(c3)OCCO4)o2)c(NCc2ccccn2)c1 [Compound 230, (2,3-Dihydro-benzo[1,4]dioxin-6-yl)-(5-{4-dimethylamino-2-[(pyridin-2-ylmethyl)-amino]-phenyl}-[1,3,4]oxadiazol-2-yl)-amine] | 45 |
| Nc1cc(C(F)(F)F)ccc1-c1nnc(Nc2ccc3c(c2)OCO3)[nH]1 [Compound 124c, [5-(2-Amino-4-trifluoromethyl-phenyl)-4H-[1,2,4]triazol-3-yl]-benzo[1,3]dioxol-5-yl-amine] | 61 |
| NS(=O)(=O)c1cccc(Nc2ncccc2-c2nnc(Nc3ccc4c(c3)OCCO4)o2)c1 [Compound 191, 3-{3-[5-(2,3-Dihydro-benzo[1,4]dioxin-6-ylamino)-[1,3,4]oxadiazol-2-yl]-pyridin-2-ylamino}-benzenesulfonamide] | 28 |
